Experimental data taken from patent US6303349A, “Esterase and methods for the production of optically active chroman compounds” (Mitsui Chemicals, Inc., priority 1997, dated 2001).

System: esterase from Pseudonocardia thermophila FERM BP-6275, homogeneously purified (Example 2)
Assay: Effect of inhibitors on the purified esterase (remaining hydrolysis of racemic 6-aminochroman-3-acetic acid methyl ester)
Format: biochemical

Structure (SMILES): OC(CS)C(O)CS (stereo not shown) [DTT]
- Relative activity (inhibitor 0.1 mM, pre-incubated 30° C. 30 min, pH 7.2, reaction 55° C. 30 min, 100% = activity without inhibitors): 102%

Structure (SMILES): O=C(O)CN(CCN(CC(=O)O)CC(=O)O)CC(=O)O [EDTA]
- Relative activity (pH 7.2, 30 min, 5000 µM): 103

Structure (SMILES): O=S(=O)(F)Cc1ccccc1 [PMSF, phenylmethylsulfonyl fluoride]
- Relative activity (pH 7.2, 30 min, 100 µM): 84
- remaining enzyme activity (pH 7.2, 30 min, 100 µM): 85%
